Reference: patent publication US10752624B2, “Kinase inhibitors” (Origenis GmbH, priority 2012, dated 2020)

Molecular target: LRRK2 (Homo sapiens, UniProt Q5S007)
Experiment: LRRK2-LRRK2 G2019S-Assay (LanthaScreen Eu Kinase Binding Assay)
Settings: 5 nM LRRK2, 10 nM tracer 236, 2 nM EU-Anti-GST antibody, 1 h at RT; read-out: LRRK2 Activities: IC50
Protocol: In the assay LanthaScreen™ Eu Kinase Binding Assay by Invitrogen Corporation (Carlsbad) the effect of invention of a compound on the phosphorylation is determined by measurement of fluorescence intensity emission ratio based on the binding and displacement of a proprietary, Alexa Fluor® 647-labeled, ATP-competitive kinase inhibitor scaffold (kinase tracer) to the kinase of interest. Binding of the tracer to the kinase is detected using a europium-labeled anti-tag antibody, which binds to the kinase of interest. Simultaneous binding of both the tracer and antibody to the kinase results in a high degree of FRET (fluorescence resonance energy transfer) from the europium (Eu) donor fluorophore to the Alexa Fluor® 647 acceptor fluorophore on the kinase tracer. Binding of an inhibitor to the kinase competes for binding with the tracer, resulting in a loss of FRET. The fluorescence intensity ratio is directly proportional to the amount of peptide phosphorylation.
To the wells of an 384 well small volume plate (Greiner, Frickenhausen) are added (i) the compound under test in 5% DMSO/distilled water (5 μl), (ii) 5 μl of the kinase antibody mixture resulting in a final concentration 5 nM LRRK2 or their mutants, 2 nM EU-Anti-GST antibody in 1× kinase buffer A. The reaction was started with addition of (iii) 5 μl resulting in a final concentration of 10 nM tracer 236. The assay plate was incubated at RT for 1 h and fluorescence intensity readings were collected using a TECAN M1000 at two wavelengths of λex 340/λem 615 nm and λex 340/λem 665 nm with a delay time of 100 μs and an integration time of 200 μs after 60 minutes. The emission ratio was calculated by division of the acceptor/tracer emission ([…]) by the antibody/donor emission ([…]). The inhibitor concentration was plotted versus the emission ratio to determine the IC50 using XLFit 5.0 (IDBS, Guildford) to fit to a sigmoidal dose response curve with a variable slope.

LRRK2, sequence (Q5S007 970-2527 limits assumed): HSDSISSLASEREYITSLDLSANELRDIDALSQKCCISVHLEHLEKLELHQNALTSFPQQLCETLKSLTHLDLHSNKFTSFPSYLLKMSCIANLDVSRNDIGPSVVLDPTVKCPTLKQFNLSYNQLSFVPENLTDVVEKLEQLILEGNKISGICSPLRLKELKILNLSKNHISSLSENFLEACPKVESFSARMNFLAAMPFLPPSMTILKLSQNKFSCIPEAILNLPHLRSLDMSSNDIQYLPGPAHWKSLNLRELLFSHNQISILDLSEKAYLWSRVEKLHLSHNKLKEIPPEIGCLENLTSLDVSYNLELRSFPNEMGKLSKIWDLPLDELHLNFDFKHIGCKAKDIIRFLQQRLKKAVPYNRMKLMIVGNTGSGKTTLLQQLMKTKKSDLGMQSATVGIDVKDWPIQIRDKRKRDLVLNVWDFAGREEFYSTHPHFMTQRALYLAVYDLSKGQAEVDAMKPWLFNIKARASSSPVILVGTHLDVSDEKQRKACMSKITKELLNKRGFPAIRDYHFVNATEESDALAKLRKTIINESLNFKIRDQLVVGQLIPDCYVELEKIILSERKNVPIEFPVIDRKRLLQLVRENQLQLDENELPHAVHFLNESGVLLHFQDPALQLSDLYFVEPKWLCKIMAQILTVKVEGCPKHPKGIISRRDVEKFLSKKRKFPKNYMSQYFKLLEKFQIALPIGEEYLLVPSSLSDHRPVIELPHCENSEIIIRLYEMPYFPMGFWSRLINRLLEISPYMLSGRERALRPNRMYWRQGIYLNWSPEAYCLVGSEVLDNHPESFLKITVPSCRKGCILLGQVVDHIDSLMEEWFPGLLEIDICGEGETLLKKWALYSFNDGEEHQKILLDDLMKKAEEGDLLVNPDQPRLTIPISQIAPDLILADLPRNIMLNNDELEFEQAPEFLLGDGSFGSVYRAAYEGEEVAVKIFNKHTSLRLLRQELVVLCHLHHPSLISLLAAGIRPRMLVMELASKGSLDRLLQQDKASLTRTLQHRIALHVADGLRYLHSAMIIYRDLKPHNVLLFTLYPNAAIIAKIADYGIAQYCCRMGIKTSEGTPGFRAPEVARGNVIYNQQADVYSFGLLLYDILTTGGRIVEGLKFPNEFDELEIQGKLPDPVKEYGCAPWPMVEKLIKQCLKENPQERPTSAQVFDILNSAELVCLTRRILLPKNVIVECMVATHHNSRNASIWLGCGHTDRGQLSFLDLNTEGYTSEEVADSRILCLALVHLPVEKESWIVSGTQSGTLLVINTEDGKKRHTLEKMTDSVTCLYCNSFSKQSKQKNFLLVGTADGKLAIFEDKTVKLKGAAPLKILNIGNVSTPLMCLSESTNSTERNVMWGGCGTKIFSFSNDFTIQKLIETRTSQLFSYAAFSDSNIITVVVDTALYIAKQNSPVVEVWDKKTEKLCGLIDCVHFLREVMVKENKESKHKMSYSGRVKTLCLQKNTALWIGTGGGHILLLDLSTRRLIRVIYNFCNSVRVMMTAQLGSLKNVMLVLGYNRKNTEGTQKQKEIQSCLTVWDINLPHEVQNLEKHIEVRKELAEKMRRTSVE

IC50 [nM] | Structure (SMILES)
100 to 1000 | COc1ccc2nc(Nc3cccc(C(=O)N4CCOCC4)c3)c3n[nH]cc3c2c1 [Example 7, (3-((8-methoxy-2H-pyrazolo[3,4-c]quinolin-4-yl)amino)phenyl)(morpholino)methanone]
10 to 100 | COc1cccc2nc(Nc3cn(C(C)C)nc3C)c3[nH]ncc3c12 [Example 222, N-(1-isopropyl-3-methyl-1H-pyrazol-4-yl)-9-methoxy-3H-pyrazolo[3,4-c]quinolin-4-amine]
10 to 100 | COCCCn1ncc(Nc2nc3cccc(OC)c3c3cn[nH]c23)c1Cl [Example 235, N-(5-chloro-1-(3-methoxypropyl)-1H-pyrazol-4-yl)-9-methoxy-3H-pyrazolo[3,4-c]quinolin-4-amine]
100 to 1000 | COc1ccc2nc(Nc3ccc4c(c3)S(=O)(=O)CC4)c3n[nH]cc3c2c1 [Example 12, 6-((8-methoxy-2H-pyrazolo[3,4-c]quinolin-4-yl)amino)-2,3-dihydrobenzo[b]thiophene 1,1-dioxide]
100 to 1000 | Cc1nn(CC(C)(C)O)cc1Nc1nc2ccc(S(C)(=O)=O)cc2c2c[nH]nc12 [Example 325, 2-methyl-1-(3-methyl-4-((8-(methylsulfonyl)-2H-pyrazolo[3,4-c]quinolin-4-yl)amino)-1H-pyrazol-1-yl)propan-2-ol]
100 to 1000 | Fc1cccc2c1nc(Nc1ccc(N3CCOCC3)cc1)c1[nH]ncc12 [Example 50, 6-fluoro-N-(4-morpholinophenyl)-3H-pyrazolo[3,4-c]quinolin-4-amine]
100 to 1000 | COc1ccc2nc(Nc3cn(C)nc3C)c3n[nH]cc3c2c1 [Example 105, N-(1,3-dimethyl-1H-pyrazol-4-yl)-8-methoxy-2H-pyrazolo[3,4-c]quinolin-4-amine]
< 10 | COc1cccc2nc(Nc3cnn(C(C)C)c3C)c3[nH]ncc3c12 [Example 219, N-(1-isopropyl-5-methyl-1H-pyrazol-4-yl)-9-methoxy-3H-pyrazolo[3,4-c]quinolin-4-amine]
100 to 1000 | CS(=O)(=O)c1cccc(Nc2nc3cccc(S(C)(=O)=O)c3c3cn[nH]c23)c1 [Example 107, 9-(methylsulfonyl)-N-(3-(methylsulfonyl)phenyl)-3H-pyrazolo[3,4-c]quinolin-4-amine]
100 to 1000 | COc1ccc2nc(Nc3cccc(CN4CCOCC4)c3)c3n[nH]cc3c2c1 [Example 23, 8-methoxy-N-(3-(morpholinomethyl)phenyl)-2H-pyrazolo[3,4-c]quinolin-4-amine]
100 to 1000 | COc1cccc2nc(Nc3cccc(C(C)(C)C#N)c3)c3[nH]ncc3c12 [Example 33, 2-(3-((9-methoxy-3H-pyrazolo[3,4-c]quinolin-4-yl)amino)phenyl)-2-methylpropanenitrile]
10 to 100 | COc1cccc2nc(Nc3ccc(C(=O)N4CCN(C)CC4)cc3)c3[nH]ncc3c12 [Example 69, (4-((9-methoxy-3H-pyrazolo[3,4-c]quinolin-4-yl)amino)phenyl)(4-methylpiperazin-1-yl)methanone]
100 to 1000 | COCCn1ncc(Nc2nc3ccc(S(C)(=O)=O)cc3c3cn[nH]c23)c1C [Example 282, N-(1-(2-methoxyethyl)-5-methyl-1H-pyrazol-4-yl)-8-(methylsulfonyl)-3H-pyrazolo[3,4-c]quinolin-4-amine]
< 10 | Cc1nn(C(C)C)cc1Nc1nc2ccc(S(C)(=O)=O)cc2c2cn[nH]c12 [Example 213, N-(1-isopropyl-3-methyl-1H-pyrazol-4-yl)-8-(methylsulfonyl)-3H-pyrazolo[3,4-c]quinolin-4-amine]
10 to 100 | COc1cccc2nc(Nc3ccc(C(=O)N4CCC(N5CCN(C)CC5)CC4)cc3)c3[nH]ncc3c12 [Example 39, (4-((9-methoxy-3H-pyrazolo[3,4-c]quinolin-4-yl)amino)phenyl)(4-(4-methylpiperazin-1-yl)piperidin-1-yl)methanone]
100 to 1000 | Fc1cccc2nc(Nc3ccc(N4CCOCC4)nc3)c3[nH]ncc3c12 [Example 11, 9-fluoro-N-(6-morpholinopyridin-3-yl)-3H-pyrazolo[3,4-c]quinolin-4-amine]
10 to 100 | COc1cccc2nc(Nc3ccc(N4CCN(C(C)(C)C)CC4)cc3)c3[nH]ncc3c12 [Example 38, N-(4-(4-(tert-butyl)piperazin-1-yl)phenyl)-9-methoxy-3H-pyrazolo[3,4-c]quinolin-4-amine]
100 to 1000 | O=C(c1ccc(Nc2nc3cccc(F)c3c3cn[nH]c23)cc1)N1CCOCC1 [Example 29, (4-((9-fluoro-3H-pyrazolo[3,4-c]quinolin-4-yl)amino)phenyl)(morpholino)methanone]

IC50 [nM] | Structure (SMILES)
< 10 | Cc1nn(CCF)cc1Nc1nc2ccc(S(C)(=O)=O)cc2c2cn[nH]c12 [Example 269, N-(1-(2-fluoroethyl)-3-methyl-1H-pyrazol-4-yl)-8-(methylsulfonyl)-3H-pyrazolo[3,4-c]quinolin-4-amine]
100 to 1000 | Cc1cccc2nc(Nc3ccc(N4CCOCC4)cc3)c3[nH]ncc3c12 [Example 89, 9-methyl-N-(4-morpholinophenyl)-3H-pyrazolo[3,4-c]quinolin-4-amine]
10 to 100 | COc1cccc2nc(Nc3ccc(CN4CCOCC4)cc3)c3[nH]ncc3c12 [Example 15, 9-methoxy-N-(4-(morpholinomethyl)phenyl)-3H-pyrazolo[3,4-c]quinolin-4-amine]
10 to 100 | COc1cccc2nc(Nc3cn(C4CCOCC4)nc3C)c3[nH]ncc3c12 [Example 207, 9-methoxy-N-(3-methyl-1-(tetrahydro-2H-pyran-4-yl)-1H-pyrazol-4-yl)-3H-pyrazolo[3,4-c]quinolin-4-amine]
< 10 | CS(=O)(=O)c1ccc2nc(Nc3cnn(C4CCOCC4)c3Cl)c3[nH]ncc3c2c1 [Example 265, N-(5-chloro-1-(tetrahydro-2H-pyran-4-yl)-1H-pyrazol-4-yl)-8-(methylsulfonyl)-3H-pyrazolo[3,4-c]quinolin-4-amine]
10 to 100 | COCCn1ncc(Nc2nc3cccc(OC)c3c3cn[nH]c23)c1Cl [Example 241, N-(5-chloro-1-(2-methoxyethyl)-1H-pyrazol-4-yl)-9-methoxy-3H-pyrazolo[3,4-c]quinolin-4-amine]
100 to 1000 | CN1CCN(c2ccc(Nc3nc4cccc(S(C)(=O)=O)c4c4cn[nH]c34)cn2)CC1 [Example 100, N-(6-(4-methylpiperazin-1-yl)pyridin-3-yl)-9-(methylsulfonyl)-3H-pyrazolo[3,4-c]quinolin-4-amine]
< 10 | COc1cccc2nc(Nc3cnn(C4CCOCC4)c3Cl)c3[nH]ncc3c12 [Example 255, N-(5-chloro-1-(tetrahydro-2H-pyran-4-yl)-1H-pyrazol-4-yl)-9-methoxy-3H-pyrazolo[3,4-c]quinolin-4-amine]
< 10 | COc1cccc2nc(Nc3cnn(C4(C#N)CCCCC4)c3)c3[nH]ncc3c12 [Example 185, 1-(4-((9-methoxy-3H-pyrazolo[3,4-c]quinolin-4-yl)amino)-1H-pyrazol-1-yl)cyclohexanecarbonitrile]
100 to 1000 | COc1cc(N2CCOC2=O)ccc1Nc1nc2ccc(S(C)(=O)=O)cc2c2cn[nH]c12 [Example 240, 3-(3-methoxy-4-((8-(methylsulfonyl)-3H-pyrazolo[3,4-c]quinolin-4-yl)amino)phenyl)oxazolidin-2-one]
100 to 1000 | COc1ccc2nc(Nc3ccc(N4CCC(N5CCN(C)CC5)CC4)nc3)c3n[nH]cc3c2c1 [Example 96, 8-methoxy-N-(6-(4-(4-methylpiperazin-1-yl)piperidin-1-yl)pyridin-3-yl)-2H-pyrazolo[3,4-c]quinolin-4-amine]
< 10 | COc1cccc2nc(Nc3cnn(C(C)(C)C)c3)c3[nH]ncc3c12 [Example 181, N-(1-(tert-butyl)-1H-pyrazol-4-yl)-9-methoxy-3H-pyrazolo[3,4-c]quinolin-4-amine]
100 to 1000 | C[C@H]1CCCN1c1cccc(Nc2nc3ccc(S(C)(=O)=O)cc3c3c[nH]nc23)c1 [Example 337, (S)—N-(3-(2-methylpyrrolidin-1-yl)phenyl)-8-(methylsulfonyl)-2H-pyrazolo[3,4-c]quinolin-4-amine]
10 to 100 | COc1cc(OC)c2nc(Nc3ccc(C(=O)N4CCOCC4)cc3)c3[nH]ncc3c2c1 [Example 308, (4-((6,8-dimethoxy-3H-pyrazolo[3,4-c]quinolin-4-yl)amino)phenyl)(morpholino)methanone]
100 to 1000 | COc1ccc(Nc2nc3ccc(C)cc3c3cn[nH]c23)cc1OC [Example 72, N-(3,4-dimethoxyphenyl)-8-methyl-3H-pyrazolo[3,4-c]quinolin-4-amine]
10 to 100 | CS(=O)(=O)c1ccc2nc(Nc3ccc4c(c3)NC(=O)CO4)c3n[nH]cc3c2c1 [Example 343, 6-((8-(methylsulfonyl)-2H-pyrazolo[3,4-c]quinolin-4-yl)amino)-2H-benzo[b][1,4]oxazin-3(4H)-one]
10 to 100 | Fc1cccc2nc(Nc3ccc(N4CCOCC4)cc3)c3[nH]ncc3c12 [Example 9, 9-fluoro-N-(4-morpholinophenyl)-3H-pyrazolo[3,4-c]quinolin-4-amine]
